Assays:
[1] = system: HAP1 MTAP-intact cell line; test: SDMA in-cell western assay, HAP1 MTAP-intact; assay type: cell-based; details: Homo sapiens, HAP1, SDMA in-cell western, HAP1 MTAP-intact; read-out: MTAP HAP1 intact IC50
Method in brief: (§1)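 IC50 values come from SDMA signal quantified by in-cell western in two HAP1 lines, one with native MTAP levels and one lacking MTAP.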

[2] = system: HAP1 MTAP-deleted cell line; test: Viability assay, MTAP-deleted cell line; assay type: cell-based; details: Homo sapiens, read-out: HAP1 MTAP deleted viability
Description: Table 1 additionally indicates IC50 values in a viability assay for the MTAP-deleted cell line (column 10), indicating the effect of treatment with compound on cell survival.

PRMT5 [3] = biological target: T1, PRMT5 (Homo sapiens, UniProt O14744); test: PRMT5 biochemical IC50 assay with SAM as cofactor; details: PRMT5, SAM as cofactor; read-out: SAM IC50
T1 construct: purchased Viva (custom protein)
T1 sequence (O14744 whole entry): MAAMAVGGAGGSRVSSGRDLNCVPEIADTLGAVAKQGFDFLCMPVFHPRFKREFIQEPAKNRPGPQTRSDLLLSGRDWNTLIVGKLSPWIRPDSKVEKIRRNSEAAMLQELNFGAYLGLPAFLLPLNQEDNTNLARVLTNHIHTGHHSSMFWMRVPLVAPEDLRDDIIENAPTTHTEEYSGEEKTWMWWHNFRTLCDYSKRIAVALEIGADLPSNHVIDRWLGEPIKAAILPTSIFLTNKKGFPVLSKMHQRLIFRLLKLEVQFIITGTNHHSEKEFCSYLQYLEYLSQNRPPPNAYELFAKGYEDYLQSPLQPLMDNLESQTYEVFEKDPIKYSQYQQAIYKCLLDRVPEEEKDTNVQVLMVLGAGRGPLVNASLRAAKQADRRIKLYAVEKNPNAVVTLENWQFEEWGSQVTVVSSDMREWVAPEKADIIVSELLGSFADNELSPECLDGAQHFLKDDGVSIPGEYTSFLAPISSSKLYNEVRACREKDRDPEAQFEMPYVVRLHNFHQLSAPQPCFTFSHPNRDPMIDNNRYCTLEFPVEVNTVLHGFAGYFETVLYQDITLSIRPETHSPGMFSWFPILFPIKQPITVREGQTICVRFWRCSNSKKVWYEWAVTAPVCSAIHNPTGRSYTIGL
T1 sequence (Q9BQA1 whole entry partner): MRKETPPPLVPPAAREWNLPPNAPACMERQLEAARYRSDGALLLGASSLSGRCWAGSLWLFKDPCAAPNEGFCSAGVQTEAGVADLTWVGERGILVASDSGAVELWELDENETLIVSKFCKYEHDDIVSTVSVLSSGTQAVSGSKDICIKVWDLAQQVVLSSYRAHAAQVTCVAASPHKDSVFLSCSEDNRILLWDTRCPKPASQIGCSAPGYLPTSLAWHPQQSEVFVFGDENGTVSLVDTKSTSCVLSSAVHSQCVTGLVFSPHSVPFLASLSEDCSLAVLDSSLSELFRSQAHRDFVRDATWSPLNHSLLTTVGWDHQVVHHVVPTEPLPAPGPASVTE

PRMT5 [4] = biological target: T1, PRMT5; test: PRMT5 biochemical IC50 assay with MTA as cofactor; details: PRMT5, MTA as cofactor; read-out: MTA IC50
[5] = system: HAP1 MTAP-deleted cell line; test: SDMA in-cell western assay, HAP1 MTAP-deleted; assay type: cell-based; details: for IC50: Homo sapiens, HAP1, SDMA in-cell western, HAP1 MTAP-deleted; for MTAP intact/deleted ratio: SDMA in-cell western
Method in brief: as §1

PRMT5 [6] = biological target: T1, PRMT5; test: PRMT5 biochemical IC50 assay with no cofactor; details: PRMT5, no cofactor
Description: Table 1 indicates IC50 values (μM) against PRMT5 for exemplary compounds in the presence of SAM as cofactor, with no cofactor, and with MTA as cofactor, respectively (columns 4-6). […] Ki values can be calculated from the IC50 values as described in the Examples section. As detailed in the Examples section, for the assay performed in the presence of SAM, IC50=Ki×1.5 (Ki=IC50/1.5).

[7] = HAP1, viability IC50, MTAP-deleted cell line
[8] = read-out: HAP 1 MTAP deleted IC50
[9] = IC50 ratio HAP1 MTAP-intact / HAP1 MTAP-deleted
[10] = HAP1, viability assay, MTAP-deleted cell line
[11] = read-out: No Cofactor/ rel IC50
[12] = read-out: HAP1 MTAP deleted IC50
[13] = IC50 ratio HAP1 MTAP-intact vs HAP1 MTAP-deleted

| SMILES | IC50 [1] [nM] | IC50 (PRMT5 [3]) [nM] | IC50 (PRMT5 [4]) [nM] | IC50 [5, 8] [nM] | IC50 (PRMT5 [6]; read-out: No Cofactor/rel IC50) [nM] | IC50 (PRMT5 [6]; [11]) [nM] | IC50 [5, 12] [nM] | IC50 [2, 7] [nM] | MTAP intact/deleted ratio [5, 9] | IC50 [2, 10] [nM] | MTAP intact/deleted ratio [5, 13] | IC50 ([2]; HAP1, viability assay, HAP1 MTAP-deleted) [nM] | IC50 ([2]; HAP1, viability, HAP1 MTAP-deleted cell line) [nM] |
| --- | --- | --- | --- | --- | --- | --- | --- | --- | --- | --- | --- | --- | --- |
| CCc1ccc([C@H]2CC[C@H](C)CN2C(=O)C(=O)Nc2cnc(N)c(C)c2)cn1 (single isomer, unassigned) [Compound 1016] | > 1000 | > 500 | > 500 | > 1000 | > 500 | – | – | – | C (an IC50 ratio of less than 3 fold) | > 10000 | – | – | – |
| C[C@@H]1CC[C@@H](c2ccc(C3(O)CCC3)cc2)N(C(=O)C(=O)Nc2cncc(C(N)=O)c2)C1 (racemic) [Compound 259, rac-5-{2-[(2R,5S)-2-[4-(1-Hydroxycyclobutyl)phenyl]-5-methylpiperidin-1-yl]-2-oxoacetamido}pyridine-3-carboxamide] | > 1000 | 50 to 500 | 50 to 500 | – | 50 to 500 | – | 100 to 1000 | – | A (an IC50 ratio greater than or equal to 10 fold) | > 10000 | – | – | – |
| Cc1cc(NC(=O)C(=O)N2C[C@@H](C)CC[C@@H]2c2ccc(N)cc2)cnc1N (single isomer, unassigned) [Compound 1081] | > 1000 | > 500 | > 500 | – | > 500 | – | > 1000 | – | – | > 10000 | B (an IC50 ratio greater than or equal to 3 fold but lower than 10 fold) | – | – |
| Cc1cc(NC(=O)C(=O)N2C[C@H](C)CC[C@H]2c2ccc3scc(CCN(C)C)c3c2)cnc1N (racemic) [Compound 1142, N-(6-amino-5-methyl-3-pyridyl)-2-[(2S,5R)-2-[3-[2-(dimethylamino)ethyl]benzothiophen-5-yl]-5-methyl-1-piperidyl]-2-oxo-acetamide] | < 100 | 50 to 500 | < 50 | – | 50 to 500 | – | < 100 | – | – | < 1000 | B (an IC50 ratio greater than or equal to 3 fold but lower than 10 fold) | – | – |
| Cc1cncc(NC(=O)C(=O)N2C[C@H](C)CC[C@H]2c2cccc(Cl)c2)c1 (single isomer, unassigned) [Compound 90] | > 1000 | > 500 | > 500 | > 1000 | – | > 500 | – | – | C (an IC50 ratio of less than 3 fold) | > 10000 | – | – | – |
| Cc1cc(NC(=O)C(=O)N2C[C@H](C)CC[C@H]2c2cc3[nH]ncc3s2)cnc1N (single isomer, unassigned) [Compound 826] | > 1000 | > 500 | 50 to 500 | – | > 500 | – | > 1000 | – | B (an IC50 ratio greater than or equal to 3 fold but lower than 10 fold) | – | – | > 10000 | – |
| Cc1cc(NC(=O)C(=O)N2C[C@H](C)CC[C@H]2c2cc(F)c(F)c(F)c2)cnc1N (single isomer, unassigned) [Compound 478] | > 1000 | 50 to 500 | < 50 | – | 50 to 500 | – | 100 to 1000 | – | A (an IC50 ratio greater than or equal to 10 fold) | 1000 to 10000 | – | – | – |
| COc1ncc(NC(=O)C(=O)N2C[C@@H](C)CC[C@@H]2c2ccc3sc(C4(CN(C)C)COC4)nc3c2)cc1C(N)=O [Compound 1155, 5-(2-((2R,5S)-2-(2-(3-((dimethylamino)methyl)oxetan-3-yl)benzo[d]thiazol-5-yl)-5-methylpiperidin-1-yl)-2-oxoacetamido)-2-methoxynicotinamide] | 100 to 1000 | < 50 | < 50 | – | < 50 | – | < 100 | – | – | < 1000 | A (an IC50 ratio greater than or equal to 10 fold) | – | – |
| CO[C@@H]1C[C@@H](c2ccc3scnc3c2)N(C(=O)C(=O)Nc2cnc(N)c(C)c2)C[C@@H]1C (single isomer, unassigned) [Compound 1130] | > 1000 | > 500 | > 500 | – | > 500 | – | > 1000 | – | – | > 10000 | – | – | – |

More lines, main results first:

| IC50 [1] [nM] | IC50 (PRMT5 [3]) [nM] | IC50 (PRMT5 [4]) [nM] | IC50 [5, 8] [nM] | IC50 (PRMT5 [6]; read-out: No Cofactor/rel IC50) [nM] | IC50 (PRMT5 [6]; [11]) [nM] | IC50 [5, 12] [nM] | SMILES | IC50 [2, 7] [nM] | MTAP intact/deleted ratio [5, 9] | IC50 [2, 10] [nM] | MTAP intact/deleted ratio [5, 13] | IC50 ([2]; HAP1, viability assay, HAP1 MTAP-deleted) [nM] | IC50 ([2]; HAP1, viability, HAP1 MTAP-deleted cell line) [nM] |
| --- | --- | --- | --- | --- | --- | --- | --- | --- | --- | --- | --- | --- | --- |
| > 1000 | 50 to 500 | 50 to 500 | 100 to 1000 | 50 to 500 | – | – | C[C@@H]1CC[C@@H](c2ccc3[nH]c(=O)[nH]c3c2)N(C(=O)C(=O)Nc2cncc(C(N)=O)c2)C1 (racemic) [Compound 623, rac-5-[[2-[(2R,5S)-5-methyl-2-(2-oxo-1,3-dihydrobenzimidazol-5-yl)-1-piperidyl]-2-oxo-acetyl]amino]pyridine-3-carboxamide] | > 10000 | A (an IC50 ratio greater than or equal to 10 fold) | – | – | – | – |
| > 1000 | 50 to 500 | 50 to 500 | > 1000 | – | 50 to 500 | – | Cc1cncc(NC(=O)C(=O)N2C[C@@H](C)CC[C@@H]2c2cccc(Cl)c2)c1 (single isomer, unassigned) [Compound 87] | – | C (an IC50 ratio of less than 3 fold) | > 10000 | – | – | – |
| > 1000 | 50 to 500 | < 50 | – | 50 to 500 | – | 100 to 1000 | C[C@@H]1CC[C@@H](c2cccc(C(F)(F)F)c2)N(C(=O)C(=O)Nc2cncc(C(N)=O)c2)C1 (racemic) [Compound 265, rac-5-{2-[(2R,5S)-5-Methyl-2-[3-(trifluoromethyl)phenyl]piperidin-1-yl]-2-oxoacetamido}pyridine-3-carboxamide] | – | A (an IC50 ratio greater than or equal to 10 fold) | 1000 to 10000 | – | – | – |
| > 1000 | 50 to 500 | 50 to 500 | > 1000 | – | > 500 | – | NC(=O)c1cncc(NC(=O)C(=O)N2CCC3CCCCCC3C2)c1 (racemic) [Compound 133, 5-(2-{Decahydro-1H-cyclohepta[c]pyridin-2-yl}-2-oxoacetamido)pyridine-3-carboxamide] | – | B (an IC50 ratio greater than or equal to 3 fold but lower than 10 fold) | > 10000 | – | – | – |
| 100 to 1000 | < 50 | < 50 | < 100 | < 50 | – | – | Cc1cc([C@@H]2CC[C@@H](C)CN2C(=O)C(=O)Nc2cnc(N)c(C)c2)ccn1 (single isomer, unassigned) [Compound 608] | < 1000 | A (an IC50 ratio greater than or equal to 10 fold) | – | – | – | – |
| > 1000 | > 500 | 50 to 500 | > 1000 | > 500 | – | – | C[C@@H]1CC[C@@H](c2ccccc2C#N)N(C(=O)C(=O)Nc2cncc(C(N)=O)c2)C1 (racemic) [Compound 664, 5-[[2-[(2R,5S)-2-(2-Cyanophenyl)-5-methyl-1-piperidyl]-2-oxo-acetyl]amino]pyridine-3-carboxamide] | > 10000 | B (an IC50 ratio greater than or equal to 3 fold but lower than 10 fold) | – | – | – | – |
| 100 to 1000 | 50 to 500 | 50 to 500 | – | 50 to 500 | – | < 100 | C[C@H]1CN(C(=O)C(=O)Nc2cnc(N)c(C3CC3)c2)[C@H](c2ccc3scnc3c2)CC1(F)F (single isomer, unassigned) [Compound 1207] | – | – | < 1000 | A (an IC50 ratio greater than or equal to 10 fold) | – | – |
| 100 to 1000 | 50 to 500 | < 50 | < 100 | – | < 50 | – | CCc1cc(NC(=O)C(=O)N2C[C@@H](C)CC[C@@H]2c2ccc3sc(N4CCOCC4)nc3c2)cnc1N [Compound 1267, N-(6-amino-5-ethylpyridin-3-yl)-2-((2R,5S)-5-methyl-2-(2-morpholinobenzo[d]thiazol-5-yl)piperidin-1-yl)-2-oxoacetamide] | – | A (an IC50 ratio greater than or equal to 10 fold) | – | – | – | < 1000 |
| > 1000 | > 500 | > 500 | – | > 500 | – | > 1000 | C[C@@H]1CC[C@@H]([C@H]2CC[C@H](O)CC2)N(C(=O)C(=O)Nc2cncc(C(N)=O)c2)C1 (single isomer, unassigned) [Compound 395] | – | C (an IC50 ratio of less than 3 fold) | > 10000 | – | – | – |
| > 1000 | > 500 | 50 to 500 | > 1000 | – | > 500 | – | Cc1cncc(NC(=O)C(=O)N2C[C@H](C)CC[C@H]2c2ccc3c(c2)CCCC3)c1 (racemic) [Compound 80, N-(5-methyl-3-pyridyl)-2-[(2S,5R)-5-methyl-2-tetralin-6-yl-1-piperidyl]-2-oxo-acetamide] | – | C (an IC50 ratio of less than 3 fold) | > 10000 | – | – | – |

Source: patent publication US11999727B2 (Tango Therapeutics, Inc., priority 2020, dated 2024)
